Reference: patent publication US4806566A, “Anti-gram positive bacteria tri-yne carbonates” (Merck & Co., Inc., priority 1987, dated 1989)
Converted amounts (≈) assume the structure as drawn.

Columns and labels:
Streptococcus faecalis = test: Minimum inhibitory concentration, agar dilution, Streptococcus faecalis; assay type: cell-based; details: Enterococcus faecalis, 24 h, one isolate per line, 10^4 cfu/spot, trypticase soy agar, 24 hours at 35° C.
Description: (§1) The free acid of the compound of formula I was prepared as aqueous solutions at a concentration of 1.28 mg/ml. Comparative agents vancomycin and streptomycin were prepared at 1.28 mg/ml in Sorensens' buffer, pH 7.
(§2) Each of the drugs was serially diluted twofold in 20×100 mm sterile petri dishes with the aid of a Pipetman. To each plate containing 1 ml of the antibiotic dilution was added 9 ml molten trypticase soy agar (TSA) (BBL) to yield final drug concentrations ranging from 128-0.031 mcg/ml. Plates were swirled to mix, allowed to solidify at room temperature and were stored overnight at 5° C.
(§3) Cultures were grown in trypticase soy broth (TSB) for 16 hours at 35° C. They were diluted 1-100 in TSB to obtain an inoculum of 10^4 cfu/spot when plated using a Denley multipoint inoculator calibrated to deliver 0.0015 ml. Inoculated plates were incubated for 24 hours at 35° C.
(§4) The minimum inhibitory concentration (MIC) was defined as the lowest concentration that allowed no growth or a barely visible haze.

S. arueus = test: Minimum inhibitory concentration, agar dilution, S. aureus; assay type: cell-based; details: Staphylococcus aureus, 24 h
Description: as §1, §2, §3, §4

[1] = system: Staphyloccoccus aureus methicillin-resistant (S. aureus Meth-R); test: Minimum inhibitory concentration, agar dilution, methicillin-resistant Staphylococcus aureus; assay type: cell-based; details: one isolate per line, 10^4 cfu/spot, trypticase soy agar, 24 hours at 35° C.
Description: as §1, §2, §3, §4

[2] = Stability of the free acid to concentration; assay type: physicochemical; details: on concentration of solutions
Description: (d) Due to the instability of the free acid of the compound of formula I to concentration, an alternate method was used to provide concentrated solutions. LH20 fractions 13-25 from Step C, 3250 ml, was extracted with 500 ml of 0.1M potassium phosphate buffer pH 7.2. The compound was extracted into the aqueous layer, 620 ml, which was reextracted with 200 ml of methylene chloride at pH 4.5. The methylene chloride extract was dried over anhydrous sodium sulfate. The extraction volumes could be adjusted to provide varying concentrations of the free acid of the compound of formula I in methylene chloride.

SMILES	MIC (Streptococcus faecalis) [µg/mL]	MIC (S. arueus) [µg/mL]	MIC [1] [µg/mL]	instability of the free acid to concentration [2]
CN[C@H](CC(C)C)C(=O)N[C@H]1C(=O)N[C@@H](CC(N)=O)C(=O)N[C@H]2C(=O)N[C@H]3C(=O)N[C@H](C(=O)N[C@H](C(=O)O)c4cc(O)cc(O)c4-c4cc3ccc4O)[C@H](O)c3ccc(c(Cl)c3)Oc3cc2cc(c3O[C@@H]2O[C@H](CO)[C@@H](O)[C@H](O)[C@H]2O[C@H]2C[C@](C)(N)[C@H](O)[C@H](C)O2)Oc2ccc(cc2Cl)[C@H]1O [Vancomycin]	4 (≈ 2.76 µM)			
[H]/N=C(/N)N[C@H]1[C@H](O)[C@@H](O)[C@H](O[C@@H]2O[C@@H](C)[C@](O)(C=O)[C@H]2O[C@@H]2O[C@@H](CO)[C@H](O)[C@@H](O)[C@@H]2NC)[C@@H](N/C(N)=N\[H])[C@@H]1O [Streptomycin]	> 128	116 (≈ 199 µM)		
C#CC#CC#CC(O)C1OC(=O)OC1CCCCCCC(=O)O (stereo not drawn) [Free Acid of the Compound of Formula I, 5-(1-hydroxy-2,4,6-heptatriynyl)-2-oxo-1,3 dioxolane]		1	0.5	instability
